Here are results for 8 substances from patent publication US20230190762A1, “STABLE VARENICLINE DOSAGE FORMS” (Handa Pharma, Inc., priority 2021, published 2023).

Where only a bound is given, the exact number is not on record here.

Data set [1] is described as follows: Particle size, Mastersizer 3000 laser particle size analyzer, wet method. It counts as physicochemical. The procedure:
The particle size of five representative lots of varenicline tartrate was determined and the results are as follows:
Mastersizer 3000 Laser Particle Size Analyzer and Electronic Analytical Balance
3.3.1 Preparation N-hexane solution of 0.1% span 85.
3.3.2 Weigh about 0.04 g sample and add into 5 mL dispersant, and ultrasonic for 10 min.
3.4.1 Cleaning instrument.
3.4.2 The above parameters are set,
3.4.3 Reconfirm the inspection parameters.
3.4.4 Background checks are required.
3.4.5 Samples tested and each for 3 times.

The nature of data set [2]: Nitrosamine test for API and finish product, UPLC-MS/MS. The format is physicochemical. As to conditions: for API nitrosamine level (Nitro-P08) (based on varenicline base): initial level of API lot. The procedure:
4. Nitrosamine Test Method for API and Finish Product
UPLC-MS/MS, Thermo scientific; Orbitrap Exploris 120
4.2. Solution Preparations
4.2.2 Mobile phase A: Formic acid: Purified Water (0.1:100), transferred 500 mL purified water to 500 mL analysis bottle, then added 500 μL formic acid and well mixed. Ultrasonic Degassing for 5 min.
4.2.3 Mobile phase B: Formic acid: Methanol (0.1:100), transferred 500 mL methanol to 500 mL analysis bottle, then added 500 μL formic acid and well mixed. Ultrasonic degassing for 5 min.
4.2.4 Reference stock solution I: Weight about 2.0 mg of 8-nitroso-7,8,9,10-tetrahydro-6H-6,10-methanoazepino[4,5-g]quinoxaline (Nitro-P08) into a 100 mL volumetric flask. Dissolve with methanol and dilute to volume and well mixed (about 20 μg/mL of Nitro-P08).
4.2.5 Reference stock solution II: Accurately pipet 5.0 mL of reference stock solution I into a 200-mL volumetric flask, dilute with methanol to volume and well mixed (about 500 ng/mL of Nitro-P08).
4.2.6 Reference stock solution III: Accurately pipet 5.0 mL of reference stock solution II into a 50-mL volumetric flask, dilute with methanol to volume and well mixed (about 50 ng/mL of Nitro-P08).
4.2.7 Reference solution: Accurately pipet 1.0 mL of reference stock solution III into a 50-mL volumetric flask, dilute with methanol to volume and well mixed.
Weighted about 25 mg of sample into a 50 mL volumetric flask. Diluted to volume with Diluent and well mixed. Prepared 2 duplication in parallel.
4.2.8.2 for Finish Product
Grind 10 tablets for 1 mg strength or 20 tablets for 0.5 mg strength, accurately weigh and transfer about 0.61 g of powder (equivalent to about 5 mg of Varenicline Tartrate API) into a 50 mL stoppered test tube, add 10 mL of methanol, vortex for 1 min and treat with ultrasound for 20 min. Place it still for 10 min, take an appropriate amount of solution for centrifugation (10000 rpm, 10 min), and then take the supernatant as the test solution. Prepare in duplicates. (Note: Grind the tablets and weigh right before the test sample solution preparation.)

The mark [3] stands for this setting: API lot of compatibility study, 80 mesh.
Where [4] appears, read: particle size of varenicline tartrate lot, listed as 202010004.
Setting [5] is: particle size of varenicline tartrate lot, listed as 202012002.
Setting [6] is: particle size of varenicline tartrate lot, listed as 202012001.
Where [7] appears, read: particle size of varenicline tartrate lot.

In data set [1] (setting [3]), Varenicline Tartrate [Lot 201702001] came in with a D10 of 1.1 µm, a D50 of 3.3 µm and a D90 of 11 µm.

For Varenicline Tartrate [Lot 202101002], in data set [2] (initial), the “Nitroso impurity [drawing 4] in bulk drug substance (API)” value worked out at 1.6 ppm and the “Nitroso impurity [drawing 5] in bulk drug substance (API)” value is “<LOQ (0.0289 ppm)”.

Regarding Varenicline Tartrate [Lot 202010004], in data set [1] (setting [4]), the D10 came to 2.339 μm, the D50 stood at 6.354 μm and the D90 is on record as 11.802 μm.

For Varenicline Tartrate [Lot 6A], the “API nitrosamine level (Nitro-P08) (based on varenicline base)” value in data set [2] is 7.35 ppm.

In data set [1] (setting [5]), Varenicline Tartrate [Lot 202012002] registered a D10 of 2.269 μm, a D50 of 5.708 μm and a D90 of 11.288 μm. Besides, in data set [2] (listed as 6B), the “API nitrosamine level (Nitro-P08) (based on varenicline base)” value stood at 1.8 ppm.

For the substance Varenicline Tartrate [Lot 202012001], in data set [1] (setting [6]), the D10 stood at 1.547 μm, the D50 was determined as 4.088 μm and the D90 turned out to be 8.554 μm.

In data set [1] (setting [7]), Varenicline Tartrate [Lot 201811001] returned a D10 of 0.878 μm, a D50 of 2.630 μm and a D90 of 32.700 μm. In data set [2] (<30° C., >[…]), the “Nitroso impurity [drawing 4] in bulk drug substance (API)” value is listed as 18.3 ppm and the “Nitroso impurity [drawing 5] in bulk drug substance (API)” value is on record as “<LOQ (0.0289 ppm)”.

Varenicline Tartrate [Lot 201810001]: in data set [1] (setting [7]), the D10 amounted to 0.858 μm, the D50 was 2.600 μm and the D90 worked out at 9.660 μm. Also, in data set [2] (<30° C., >[…]), the “Nitroso impurity [drawing 4] in bulk drug substance (API)” value came out at 7.1 ppm and the “Nitroso impurity [drawing 5] in bulk drug substance (API)” value was “<LOQ (0.0289 ppm)”.
